ChEMBL document CHEMBL4507294, “Data for DCP probe MSD-CYP11B2” (2021)
Activity calls are given as the source filed them. No cut-off for these calls is given here.

Columns and labels:
[1] = target: Histamine H4 receptor (Homo sapiens) (UniProt Q9H3N8); settings: Compound concentration 10.0 uM
[2] = target: Cytochrome P450 11B1, mitochondrial (Homo sapiens, UniProt P15538); assay: Assay using V79 cell lines (CYP11B1); type: cell-based
[3] = target: Delta-type opioid receptor (Homo sapiens) (UniProt P41143); settings: Compound concentration 10.0 uM
[4] = target: Sodium-dependent serotonin transporter (Homo sapiens) (UniProt P31645); settings: Compound concentration 10.0 uM
[5] = target: T1, Alpha-2B adrenergic receptor (Homo sapiens) (UniProt P18089)
T1 sequence (whole entry): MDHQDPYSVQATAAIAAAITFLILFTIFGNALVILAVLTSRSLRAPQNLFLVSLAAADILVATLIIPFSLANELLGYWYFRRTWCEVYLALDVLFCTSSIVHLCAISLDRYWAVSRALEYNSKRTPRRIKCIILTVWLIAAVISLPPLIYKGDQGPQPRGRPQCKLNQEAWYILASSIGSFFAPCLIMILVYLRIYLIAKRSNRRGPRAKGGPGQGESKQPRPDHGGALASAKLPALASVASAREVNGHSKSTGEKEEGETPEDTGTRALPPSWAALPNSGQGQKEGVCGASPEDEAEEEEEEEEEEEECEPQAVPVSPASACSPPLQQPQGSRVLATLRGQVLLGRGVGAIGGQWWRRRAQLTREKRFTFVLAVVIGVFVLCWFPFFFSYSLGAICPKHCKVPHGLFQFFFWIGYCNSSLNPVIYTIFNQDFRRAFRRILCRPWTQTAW

[6] = target: Gamma-aminobutyric acid type B receptor subunit 1 (Homo sapiens) (UniProt Q9UBS5); settings: Rattus norvegicus; Compound concentration 10.0 uM
[7] = target: T2, Beta-1 adrenergic receptor (Homo sapiens, UniProt P08588); assay: Panlabs assay (ADRB1); parameters: compound concentration 10 uM
[8] = target: Muscarinic acetylcholine receptor M4 (Homo sapiens) (UniProt P08173); settings: Compound concentration 10.0 uM
[9] = target: T3, Alpha-2B adrenergic receptor (Homo sapiens, UniProt P18089); assay: Panlabs assay (ADRA2B); parameters: compound concentration 10 uM
T3 sequence (P18089 whole entry): T1 sequence (whole entry)

[10] = target: Adenosine receptor A2a (Homo sapiens) (UniProt P29274); settings: Compound concentration 10.0 uM
[11] = target: T2, Beta-1 adrenergic receptor; assay: Inhibition of Adrenergic beta1 at compound concentration of 10.0 uM in the Eurofins-Panlabs radioligand binding assay (Eurofins_assay_204010); parameters: ligand concentration 0.03 nM, non-specific ligand with concentration 100 uM S(-)-Propranolol, incubation time 2 h, incubation temperature 25 C
[12] = target: Cholecystokinin receptor type A (Homo sapiens) (UniProt P32238); assay: Inhibition of Cholecystokinin CCK1 (CCKA) at 10 µM in the Eurofins-Panlabs radioligand binding assay (Eurofins_assay_218020); settings: Compound concentration 10.0 uM
[13] = target: GABA-A receptor; anion channel (Rattus norvegicus) (UniProt O09028+P15431+P18506+P18508+P19969+P20236+P23574+P23576+P28471+P28473+P30191+P62813+P63079+P63138+Q91ZM7+Q9ES14); settings: Compound concentration 10.0 uM
[14] = target: T4, 5-hydroxytryptamine receptor 2B (Homo sapiens, UniProt P41595); assay: Panlabs assay (HTR2B); parameters: compound concentration 10 uM
[15] = target: D(1A) dopamine receptor (Homo sapiens) (UniProt P21728); settings: Compound concentration 10.0 uM
[16] = target: T3, Alpha-2B adrenergic receptor; assay: GPCRScan assay: inhibition of Alpha2B; parameters: radioligand conc. used [nm] 1.5 – 2.0, parental cells HEKT
[17] = target: Neuropeptide Y receptor type 1 (Homo sapiens) (UniProt P25929); assay: Inhibition of Neuropeptide Y Y1 at 10 µM in the Eurofins-Panlabs radioligand binding assay (Eurofins_assay_257010); settings: Compound concentration 10.0 uM
[18] = target: Alpha-2C adrenergic receptor (Homo sapiens, UniProt P18825); assay: GPCRScan assay: inhibition of Alpha2C; parameters: radioligand conc. used [nm] 0.5 – 1.0, parental cells stable MDCK
[19] = target: Glutamate NMDA receptor (Rattus norvegicus) (UniProt P35439+Q00959+Q00960+Q00961+Q62645+Q8VHN2+Q9R1M7); settings: Compound concentration 10.0 uM
[20] = target: Muscarinic acetylcholine receptor M3 (Homo sapiens) (UniProt P20309); settings: Compound concentration 10.0 uM
[21] = target: T4, 5-hydroxytryptamine receptor 2B
[22] = species: Homo sapiens; assay: Glutamate, Metabotropic, mGlu5 Eurofins-Panlabs radioligand binding assay; settings: Compound concentration 10.0 uM
[23] = target: Peroxisome proliferator-activated receptor gamma (Homo sapiens) (UniProt P37231); assay: PPARgamma Eurofins-Panlabs radioligand binding assay; parameters: ligand concentration 5 nM, non-specific ligand with concentration 0.5 µM L-797773, incubation time 18 h, incubation temperature 15 °C; settings: Compound concentration 10.0 uM
[24] = target: Melanocyte-stimulating hormone receptor (Homo sapiens) (UniProt Q01726); assay: Melanocortin MC1 Eurofins-Panlabs radioligand binding assay; settings: Compound concentration 10.0 uM
[25] = target: T5, 5-hydroxytryptamine receptor 2C (Homo sapiens) (UniProt P28335); settings: Compound concentration 10.0 uM
T5 sequence (whole entry): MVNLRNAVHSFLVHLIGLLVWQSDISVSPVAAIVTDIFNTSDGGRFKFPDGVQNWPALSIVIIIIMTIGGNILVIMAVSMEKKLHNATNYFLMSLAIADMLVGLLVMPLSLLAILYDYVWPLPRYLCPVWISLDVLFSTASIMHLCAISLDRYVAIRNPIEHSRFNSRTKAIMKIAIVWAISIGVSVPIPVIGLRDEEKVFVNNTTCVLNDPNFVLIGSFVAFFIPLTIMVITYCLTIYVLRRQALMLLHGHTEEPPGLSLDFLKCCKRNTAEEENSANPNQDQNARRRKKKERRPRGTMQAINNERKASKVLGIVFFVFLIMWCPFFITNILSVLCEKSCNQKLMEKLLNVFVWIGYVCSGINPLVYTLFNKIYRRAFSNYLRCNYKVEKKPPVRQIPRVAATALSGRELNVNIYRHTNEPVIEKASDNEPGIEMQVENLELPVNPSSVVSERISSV

[26] = target: Alpha-1A adrenergic receptor (Homo sapiens) (UniProt P35348); settings: Compound concentration 10.0 uM
[27] = target: Estrogen receptor (Homo sapiens) (UniProt P03372); settings: Compound concentration 10.0 uM
[28] = target: Acetylcholine receptor subunit alpha (Homo sapiens) (UniProt P02708); assay: Inhibition of Nicotinic Acetylcholine D1, Bungarotoxin at 10 µM in the Eurofins-Panlabs radioligand binding assay (Eurofins_assay_258700); settings: Compound concentration 10.0 uM
[29] = target: T3, Alpha-2B adrenergic receptor; assay: Inhibition of Adrenergic alpha2B at compound concentration of 10.0 uM in the Eurofins-Panlabs radioligand binding assay (Eurofins_assay_203710); parameters: ligand concentration 2.5 nM, non-specific ligand with concentration 10 uM Prazosin, incubation time 60 min, incubation temperature 25 C
[30] = target: Histamine H3 receptor (Homo sapiens) (UniProt Q9Y5N1); settings: Compound concentration 10.0 uM
Histamine H3 receptor (Homo sapiens), sequence (Q9Y5N1 whole entry): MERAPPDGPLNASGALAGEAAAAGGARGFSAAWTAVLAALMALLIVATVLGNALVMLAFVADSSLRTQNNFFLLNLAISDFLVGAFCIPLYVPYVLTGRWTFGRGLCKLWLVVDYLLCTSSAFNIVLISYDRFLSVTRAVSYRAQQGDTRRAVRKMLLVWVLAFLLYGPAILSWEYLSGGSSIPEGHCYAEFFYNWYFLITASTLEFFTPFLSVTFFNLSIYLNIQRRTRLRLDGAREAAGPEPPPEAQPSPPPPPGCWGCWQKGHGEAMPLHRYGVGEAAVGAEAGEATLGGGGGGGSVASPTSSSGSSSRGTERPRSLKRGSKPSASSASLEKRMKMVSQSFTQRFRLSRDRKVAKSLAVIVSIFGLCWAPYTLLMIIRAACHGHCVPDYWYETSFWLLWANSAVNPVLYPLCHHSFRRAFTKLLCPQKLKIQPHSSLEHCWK

T2 sequence (P08588 whole entry): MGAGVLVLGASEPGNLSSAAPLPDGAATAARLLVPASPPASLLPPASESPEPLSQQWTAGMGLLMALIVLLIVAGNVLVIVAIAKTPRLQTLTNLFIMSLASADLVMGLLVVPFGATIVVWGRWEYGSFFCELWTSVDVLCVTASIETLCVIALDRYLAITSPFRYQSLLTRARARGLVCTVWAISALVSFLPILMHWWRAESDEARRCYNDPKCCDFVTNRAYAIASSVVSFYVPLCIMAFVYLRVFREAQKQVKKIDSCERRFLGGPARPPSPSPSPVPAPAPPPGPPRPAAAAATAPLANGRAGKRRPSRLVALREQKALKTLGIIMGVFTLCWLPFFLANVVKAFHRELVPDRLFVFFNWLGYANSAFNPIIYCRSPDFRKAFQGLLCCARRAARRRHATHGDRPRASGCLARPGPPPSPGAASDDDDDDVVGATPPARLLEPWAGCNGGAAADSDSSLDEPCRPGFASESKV
T4 sequence (P41595 whole entry): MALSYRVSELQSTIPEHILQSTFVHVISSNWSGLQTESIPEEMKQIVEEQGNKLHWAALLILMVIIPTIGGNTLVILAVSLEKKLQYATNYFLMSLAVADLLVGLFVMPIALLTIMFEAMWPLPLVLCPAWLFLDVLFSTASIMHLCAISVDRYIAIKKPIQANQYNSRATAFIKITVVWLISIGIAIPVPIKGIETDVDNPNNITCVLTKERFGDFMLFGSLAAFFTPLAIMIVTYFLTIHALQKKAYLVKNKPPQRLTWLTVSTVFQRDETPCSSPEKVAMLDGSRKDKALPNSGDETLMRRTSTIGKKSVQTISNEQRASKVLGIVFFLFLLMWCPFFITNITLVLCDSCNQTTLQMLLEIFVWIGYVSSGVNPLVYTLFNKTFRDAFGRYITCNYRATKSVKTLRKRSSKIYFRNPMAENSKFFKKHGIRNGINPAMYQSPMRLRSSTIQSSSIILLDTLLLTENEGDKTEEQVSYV
Cytochrome P450 11B1, mitochondrial, sequence (P15538 whole entry): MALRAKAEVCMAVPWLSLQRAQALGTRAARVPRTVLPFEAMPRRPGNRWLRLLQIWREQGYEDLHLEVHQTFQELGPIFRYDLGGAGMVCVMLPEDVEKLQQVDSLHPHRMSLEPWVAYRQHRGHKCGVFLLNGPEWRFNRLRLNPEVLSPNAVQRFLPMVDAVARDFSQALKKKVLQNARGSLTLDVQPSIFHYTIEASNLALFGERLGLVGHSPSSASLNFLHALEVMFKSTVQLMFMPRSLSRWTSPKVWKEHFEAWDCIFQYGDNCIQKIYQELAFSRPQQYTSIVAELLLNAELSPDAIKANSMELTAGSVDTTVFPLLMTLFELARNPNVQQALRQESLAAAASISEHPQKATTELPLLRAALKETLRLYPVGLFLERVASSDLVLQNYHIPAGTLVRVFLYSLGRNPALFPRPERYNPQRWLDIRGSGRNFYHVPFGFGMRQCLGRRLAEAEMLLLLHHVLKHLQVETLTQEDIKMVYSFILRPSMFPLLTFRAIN
Adenosine receptor A2a (Homo sapiens), sequence (P29274 whole entry): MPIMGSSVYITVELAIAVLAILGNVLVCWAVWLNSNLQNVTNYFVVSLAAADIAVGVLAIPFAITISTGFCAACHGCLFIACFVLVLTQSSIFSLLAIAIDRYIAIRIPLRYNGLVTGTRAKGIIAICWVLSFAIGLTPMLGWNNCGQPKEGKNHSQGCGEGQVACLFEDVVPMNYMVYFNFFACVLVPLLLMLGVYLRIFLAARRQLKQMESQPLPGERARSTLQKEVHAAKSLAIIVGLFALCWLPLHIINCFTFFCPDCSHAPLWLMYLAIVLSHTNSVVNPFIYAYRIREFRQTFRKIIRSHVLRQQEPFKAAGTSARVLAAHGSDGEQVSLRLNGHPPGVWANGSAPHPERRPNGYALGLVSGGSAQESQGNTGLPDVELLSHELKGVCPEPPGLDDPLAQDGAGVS
D(1A) dopamine receptor (Homo sapiens), sequence (P21728 whole entry): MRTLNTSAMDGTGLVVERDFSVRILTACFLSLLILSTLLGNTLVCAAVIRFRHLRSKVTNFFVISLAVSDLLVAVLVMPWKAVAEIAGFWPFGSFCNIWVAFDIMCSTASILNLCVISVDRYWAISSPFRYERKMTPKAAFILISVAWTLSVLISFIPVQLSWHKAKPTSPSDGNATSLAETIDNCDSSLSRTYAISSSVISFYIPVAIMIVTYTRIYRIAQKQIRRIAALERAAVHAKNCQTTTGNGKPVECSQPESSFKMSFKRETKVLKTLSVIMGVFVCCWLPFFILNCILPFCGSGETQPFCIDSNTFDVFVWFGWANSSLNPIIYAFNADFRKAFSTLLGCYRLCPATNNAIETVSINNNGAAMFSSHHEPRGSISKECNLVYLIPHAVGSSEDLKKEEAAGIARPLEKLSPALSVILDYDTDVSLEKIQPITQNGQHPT
Sodium-dependent serotonin transporter (Homo sapiens), sequence (P31645 whole entry, looked up): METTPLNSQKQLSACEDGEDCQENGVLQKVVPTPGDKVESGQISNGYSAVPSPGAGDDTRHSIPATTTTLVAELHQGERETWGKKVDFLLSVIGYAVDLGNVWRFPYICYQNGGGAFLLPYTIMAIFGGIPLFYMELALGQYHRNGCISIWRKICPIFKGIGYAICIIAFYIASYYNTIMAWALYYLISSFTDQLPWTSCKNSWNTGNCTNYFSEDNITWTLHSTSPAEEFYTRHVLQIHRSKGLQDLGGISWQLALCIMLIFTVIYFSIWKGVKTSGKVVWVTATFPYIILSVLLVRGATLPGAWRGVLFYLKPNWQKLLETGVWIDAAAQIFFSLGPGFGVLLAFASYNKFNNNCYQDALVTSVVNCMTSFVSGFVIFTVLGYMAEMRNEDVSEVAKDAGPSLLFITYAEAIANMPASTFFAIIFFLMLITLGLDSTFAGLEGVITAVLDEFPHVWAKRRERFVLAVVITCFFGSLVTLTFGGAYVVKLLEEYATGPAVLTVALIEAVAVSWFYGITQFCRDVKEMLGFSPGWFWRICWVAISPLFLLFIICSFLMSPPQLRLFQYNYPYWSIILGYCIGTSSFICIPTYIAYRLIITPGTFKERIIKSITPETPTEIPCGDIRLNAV
Acetylcholine receptor subunit alpha (Homo sapiens), sequence (P02708 whole entry): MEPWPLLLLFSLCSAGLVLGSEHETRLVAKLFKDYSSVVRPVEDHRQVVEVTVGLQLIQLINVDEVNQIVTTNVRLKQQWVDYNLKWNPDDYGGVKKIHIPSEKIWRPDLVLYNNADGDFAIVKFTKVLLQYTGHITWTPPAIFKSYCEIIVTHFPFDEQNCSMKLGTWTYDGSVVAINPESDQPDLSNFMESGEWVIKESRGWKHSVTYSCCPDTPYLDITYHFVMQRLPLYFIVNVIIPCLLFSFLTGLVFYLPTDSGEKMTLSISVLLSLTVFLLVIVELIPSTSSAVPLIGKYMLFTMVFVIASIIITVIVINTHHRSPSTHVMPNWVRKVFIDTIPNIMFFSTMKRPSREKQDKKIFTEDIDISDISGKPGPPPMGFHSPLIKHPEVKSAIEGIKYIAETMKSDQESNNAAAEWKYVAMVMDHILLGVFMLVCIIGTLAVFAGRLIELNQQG
Alpha-1A adrenergic receptor (Homo sapiens), sequence (P35348 whole entry): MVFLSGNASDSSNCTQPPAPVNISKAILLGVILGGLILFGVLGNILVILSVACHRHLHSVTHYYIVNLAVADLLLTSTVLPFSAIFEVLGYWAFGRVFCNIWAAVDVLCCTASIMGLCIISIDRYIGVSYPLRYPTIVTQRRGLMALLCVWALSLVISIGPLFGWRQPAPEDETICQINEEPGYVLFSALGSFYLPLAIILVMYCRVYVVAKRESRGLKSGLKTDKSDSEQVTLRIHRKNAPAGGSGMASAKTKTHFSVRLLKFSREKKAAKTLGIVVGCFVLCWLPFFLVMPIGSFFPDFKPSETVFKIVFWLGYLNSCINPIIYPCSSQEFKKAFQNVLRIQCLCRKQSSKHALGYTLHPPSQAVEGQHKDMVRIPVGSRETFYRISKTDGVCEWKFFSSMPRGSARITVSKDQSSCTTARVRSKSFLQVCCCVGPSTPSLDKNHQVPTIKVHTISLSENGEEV
Neuropeptide Y receptor type 1 (Homo sapiens), sequence (P25929 whole entry): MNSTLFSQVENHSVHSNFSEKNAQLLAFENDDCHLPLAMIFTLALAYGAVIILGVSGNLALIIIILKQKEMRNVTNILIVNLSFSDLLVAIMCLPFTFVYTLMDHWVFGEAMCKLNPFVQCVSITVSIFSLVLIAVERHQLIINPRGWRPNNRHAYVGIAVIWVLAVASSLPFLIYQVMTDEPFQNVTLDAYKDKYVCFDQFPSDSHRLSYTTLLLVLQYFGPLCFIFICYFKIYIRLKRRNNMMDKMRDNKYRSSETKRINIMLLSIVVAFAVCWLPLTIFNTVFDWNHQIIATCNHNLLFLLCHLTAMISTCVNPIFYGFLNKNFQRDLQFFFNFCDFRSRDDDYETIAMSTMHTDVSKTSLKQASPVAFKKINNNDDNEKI

## FC(F)(F)c1ccc2c(c1)nc(-c1cccnc1)n2C1CC1 [MSD-CYP11B2-Negative-control]
[1]
  inhibition: -9.43%
[2]
  IC50: > 10 µM (not active)
[3]
  inhibition: -9.33%
[4]
  inhibition: -5.44%

## CC(C)(O)c1cncc(-c2nc3ccc(F)cc3n2C2CC2)c1 [MSD-CYP11B2]
[5]; Compound concentration 0.1 uM
  inhibition: 9%
[5]; Compound concentration 1.0 uM
  inhibition: 20%
[5]; Compound concentration 10.0 uM
  inhibition: 65%
[6]
  inhibition: 6%
[7]
  IC50: 9.62 µM
[8]
  inhibition: -0.57%
[9]
  IC50: 4.7 µM (active)
[10]
  inhibition: -5%
[11]
  IC50: 9.62 µM
  Ki: 5.55 µM
[12]
  inhibition: 4%
[13]
  inhibition: 16%
[14]
  IC50: 5.33 µM
[15]
  inhibition: -1%
[16]
  Ki: 1.44 µM
[17]
  inhibition: 11%
[18]
  Ki: 0.626 µM
[19]
  inhibition: -1%
[20]
  inhibition: 2%
[21]; Compound concentration 0.01 uM
  inhibition: -2%
[21]; Compound concentration 0.1 uM
  inhibition: -5%
[21]; Compound concentration 1.0 uM
  inhibition: 17%
[21]; Compound concentration 10.0 uM
  inhibition: 65%
[22]
  inhibition: 25%
[23]
  inhibition: 8%
[24]
  inhibition: -1%
[25]
  inhibition: 11%
[26]
  inhibition: -3.03%
[27]
  inhibition: 1%
[28]
  inhibition: 0%
[29]
  IC50: 4.7 µM
  Ki: 2.15 µM
[30]
  inhibition: -4.55%
